In patent US8835410B2, “Treatment of eyelid dermatitis” (Bodor Laboratories, Inc., priority 2011, dated 2014):
“Also recorded” adds a separate entry of the source. Marks after values point to notes of the source that are not given here.

What was measured:
[1] = Stability of LE in aqueous suspension with or without Δ^1-cortienic acid at room temperature (HPLC); type: physicochemical; conditions: for k: 421 days
Protocol: To investigate the effect of Δ^1-cortienic acid (Δ^1-CA) on the stability of loteprednol etabonate (LE), the following experiments were conducted at room temperature (22.5° C.):
Inactives: Δ^1-CA, 0.1% (2.897 mM) & 0.2% (5.795 mM); Glycerin, Povidone, Tyloxapol, Edetate Disodium Dihydrate, Purified Water.
Preservative added: Benzalkonium Chloride 0.01%
• 1) To the mixture of 9.32 g glycerin (USP, 99.7%), 7.2 g Povidone (USP, 90000), 1.2 g Tyloxapol (USP), 0.08 g benzalkonium chloride (USP, […] of 50% solution), and 0.04 g Edetate Disodium Dihydrate (USP), 400 ml Purified Water (USP) was added. 2) The mixture was sonicated for 20 minutes to make a homogenous solution, and its pH was measured. 3) To 150 ml of each solution was added 0.15 g or 0.3 g of loteprednol etabonate (micronized), and the mixture was sonicated for 30 minutes to obtain two LE-only suspensions at 0.1% & 0.2%, respectively. 4) From each LE-only suspension (0.1 & 0.2%), 75 ml was taken and combined with micronized Δ^1-CA (0.075 & 0.15 g). 5) All four suspensions were mixed and sonicated again for another 30 minutes, and the pH of each was measured (Blank vehicle pH 3.4; LE only suspensions, pH 3.5; LE+Δ^1-CA suspensions, pH 3.3). 6) Each of the four suspensions was separated/pipetted (1 ml) into 8 ml amber vials (1 ml/vial) and the vials were sealed with caps and parafilm. 7) Half of each formula 1 ml/vial samples were loaded on a shaker for continuous shaking (170 times/min), and the other half of the samples were only shaken vigorously by hand each time before HPLC sample preparation. 8) For periodical samplings, one sample of every set of suspensions was taken and analyzed by HPLC. 9) All procedures were conducted at 22.5° C. Sample Preparation
The change of LE and its degradation products AE (acid etabonate) and Δ^1-CA in the suspensions was measured periodically. A vial of each series of suspensions was randomly taken, mixed/washed with 50% acetonitrile, and transferred to a 10 ml cylinder to make a final volume of 10 ml solution (about 100 μg/ml for LE 0.1% or 200 μg/ml for LE 0.2% samples).
A HPLC system operating at ambient temperature was used to quantitative determination of LE, AE and Δ^1-CA. Phenonemax Luna C18 (5μ, 150×4.6 mm) was connected to a Spectra-Physics component system consisting of a SP 8810 precision isocratic pump, a Rheodyne 7125 injector (injection volume 20 μl), a SP 8450 UV/VIS variable wavelength detector (operated at 254 nm), and a SP 4290 integrator. At a flow rate of 1 ml/min, a mobile phase consisting of acetonitrile, acetic acid, and water in a volume ratio of 60:0.2:40 eluted LE, AE and Δ^1-CA at 7.5, 3.2, and 2.2 min, respectively. Each sample was run in triplicate. The change in peak-area was recorded, and the percent ratio of each compound (LE, AE, and Δ^1-CA) toward total (LE+AE+Δ^1-CA) in peak-area was used to evaluate the disappearance of LE as well as the appearance of AE and Δ^1-CA. Since Δ^1-CA was used as an additive for LE+Δ^1-CA samples, the appearance of Δ^1-CA (from AE) was in the error range of these samples, and furthermore, in the LE-only samples, Δ^1-CA was observed from zero-time at 0.36±0.19% of total (LE+AE+Δ^1-CA), and less than, or about 0.5% thereafter in all LE-only samples; the number 0.5% was used as the amount of Δ^1-CA for all of LE+Δ^1-CA samples.

patient with necrobiosis = experiment: Topical treatment of a patient with necrobiosis; type: in vivo, human; conditions: LE as 0.5% cream of Example 2
From the text: Further confirmation has been found in a patient with necrobiosis.

Sprague-Dawley rats = experiment: Effect of steroid ointments on skin atrophy and thymus weight in rats; type: in vivo, rat; conditions: for PERCENT DECREASE IN SKIN THICKNESS / PERCENT DECREASE IN THYMUS WEIGHT: ointment on shaved dorsal skin, vs controls; for effect on thymus weight (in words) / skin atrophy (in words): topical ointment
Protocol: To investigate the effects of loteprednol etabonate (LE) on skin atrophy and thymus weight, the following experiments were conducted: Loteprednol etabonate (LE) and betamethasone valerate (BMV) were formulated by Otsuka Pharmaceuticals at a concentation of 0.1% in a white petrolatum base containing 5% propylene carbonate. All other test materials were steroidal anti-inflammatory compounds [Locoid® or hydrocortisone 17-butyrate (HCB) and Rinderon® or betamethasone 17-valerate (BMV-R) or white petrolatum vehicle as a control] which were commercially available in Japan at the time of testing. Sprague-Dawley rats were used in this study. All animals were from the animal research facilities of Otsuka Pharmaceutical Co. Ltd., Tokushima, Japan and all animal care and housing were according to their standard procedures. Groups of male rats (Sprague Dawley) weighing about 200-240 g were shaved on the dorsal surface. Loteprednol etabonate and betamethasone 17-valerate were administered as 0.1% ointments using white petrolatum base containing 5% propylene carbonate (PC). In separate groups, 0.12% betamethasone 17-valerate (Rinderon®), 0.1% hydrocortisone 17-butyrate (Locoid®) were administered as comparators. White petrolatum base (+5% PC) was administered to control animals. Two schedules of dosing were used: 200 mg/rat for 14 days (n=5) or 400 mg/rat for 7 days (n=7). At the end of these periods, rats were sacrificed. The thickness of a 1 cm^2 section of skin from the treated area was measured. The thymus was removed and weighed.

hairless mice = experiment: Multi-week topical (photocarcinogenicity) study of loteprednol etabonate cream in hairless mice, with or without simulated sunlight; skinfold thickness; type: in vivo, mouse
Protocol: To investigate photocarcinogenicity, a multi-week study of loteprednol etabonate cream in hairless mice, with or without simulated sunlight, was undertaken. […] Because effects on skin atrophy were also recorded, however, and because a period of 4 weeks is the maximum recommended treatment period for eyelid dermatitis, results for the first 4 weeks of the study are given below. Mice were treated with the cream formulation once daily, five days per week. In the portion of the test summarized below, the cream contained LE in amounts of 0, 0.25% by weight and 0.5% by weight. (Higher concentrations were tested but results are not given here). Week 0 was baseline. After 4 weeks, skin thickness measurements were taken using a caliper. The cream also contained glycerin 99% USP, benzyl alcohol NF, purified water USP, carbomer 940 NF (Carbopol 980), glyceryl stearate/PEG 100 stearate, trolamine 99F, cetyl alcohol NF, stearyl alcohol NF, white petrolatum USP, light mineral oil NF and dimethicone (50 cst).

[2] = anti-inflammatory activity; cited from earlier work
[3] = clinical trials, compared to prednisolone; cited from earlier work
[4] = LE 0.1% + Δ^1-CA 0.1% suspension, 22.5° C.
[5] = LE 0.1% suspension, no Δ^1-CA, 22.5° C.
[6] = LE 0.2% + Δ^1-CA 0.2% suspension, 22.5° C.
[7] = LE 0.2% suspension, no Δ^1-CA, 22.5° C.
[8] = regimens of Table 2, listed as loteprednol etabonate

CCOC(=O)OC1(C(=O)O)CC[C@H]2[C@@H]3CCC4=CC(=O)C=C[C@]4(C)[C@H]3C(O)C[C@@]21C (stereo partly shown) [AE]
stability of degradation product AE in the suspension ([1]; aqueous LE suspensions, 22.5° C.): stable

CCCCC(=O)O[C@]1(C(=O)CO)[C@@H](C)C[C@H]2[C@@H]3CCC4=CC(=O)C=C[C@]4(C)[C@@]3(F)[C@@H](O)C[C@@]21C [BMV, betamethasone 17-valerate]
effect on inflammation / necrobiosis (patient with necrobiosis): successful in lessening inflammation
skin atrophy (skin thinning) (patient with necrobiosis): thinned the skin
PERCENT DECREASE IN SKIN THICKNESS (Sprague-Dawley rats; 200 mg/day - 14 d): 12.8* PERCENT
PERCENT DECREASE IN THYMUS WEIGHT (Sprague-Dawley rats; 200 mg/day - 14 d): 70.1** PERCENT
effect on thymus weight (in words) (Sprague-Dawley rats; regimens of Table 2): significant decreases in thymus weight
skin atrophy (in words) (Sprague-Dawley rats; regimens of Table 2): caused skin atrophy
effect on thymus weight (in words) (Sprague-Dawley rats; regimens of Table 2, listed as Betamethasone valerate): most significant decreases in thymus weight

CCCC(=O)O[C@]1(C(=O)CO)CC[C@H]2[C@@H]3CCC4=CC(=O)CC[C@]4(C)[C@H]3[C@@H](O)C[C@@]21C [HCB, hydrocortisone 17-butyrate]
PERCENT DECREASE IN SKIN THICKNESS (Sprague-Dawley rats; 200 mg/day - 14 d): 17.9* PERCENT
PERCENT DECREASE IN THYMUS WEIGHT (Sprague-Dawley rats; 200 mg/day - 14 d): 29.5* PERCENT
PERCENT DECREASE IN SKIN THICKNESS (Sprague-Dawley rats; 400 mg/day - 7 d): 12.8* PERCENT
PERCENT DECREASE IN THYMUS WEIGHT (Sprague-Dawley rats; 400 mg/day - 7 d): 36.0** PERCENT
effect on thymus weight (in words) (Sprague-Dawley rats; regimens of Table 2): significant decreases in thymus weight
skin atrophy (in words) (Sprague-Dawley rats; regimens of Table 2): most marked; also recorded: caused skin atrophy

CCOC(=O)O[C@]1(C(=O)OCCl)CC[C@H]2[C@@H]3CCC4=CC(=O)C=C[C@]4(C)[C@H]3[C@@H](O)C[C@@]21C [LE, chloromethyl 17α-ethoxycarbonyloxy-11β-hydroxyandrosta-1,4-dien-3-one-17β-carboxylate]
skin atrophy (in words) (hairless mice; 1.5% and 4.5% by weight of LE and/or study extended to week 8 and week 13): more skin atrophy was seen
effect on skin thickness (in words) (hairless mice; LE at 0.25% and 0.5%, application for four weeks): no or minimal deleterious effect on skin thickness
activity relative to hydrocortisone (HC) [2]: approximately 20 times
t95% [1, 4]: 3.66 year
k [1, 4]: 3.84 day^−1 × 10^−5
t95% [1, 5]: 2.10 year
k [1, 5]: 6.69 day^−1 × 10^−5
t95% [1, 6]: 6.12 year
k [1, 6]: 2.30 day^−1 × 10^−5
t95% [1, 7]: 3.21 year
k [1, 7]: 4.38 day^−1 × 10^−5
stabilization of LE by increase in concentration ([1]; concentration from 0.1% to 0.2%, in either LE-only or LE+Δ^1-CA suspension): more than 1.5 times
stabilization of LE by Δ^1-cortienic acid relative to LE in the absence of the enhancer (increase of half-life) ([1]; same concentration of Δ^1-CA added to LE suspension): between one and one-half and two times; also recorded: almost two times
cataracts [3]: did not elevate intraocular pressure or cause cataracts
elevation of intraocular pressure [3]: did not elevate intraocular pressure
effect on inflammation / necrobiosis (patient with necrobiosis): effective in treating the necrobiosis by lessening inflammation
skin atrophy (skin thinning) (patient with necrobiosis): did not cause skin atrophy
PERCENT DECREASE IN SKIN THICKNESS (Sprague-Dawley rats; 200 mg/day - 14 d): 6.5%
PERCENT DECREASE IN THYMUS WEIGHT (Sprague-Dawley rats; 200 mg/day - 14 d): 12.8%
PERCENT DECREASE IN SKIN THICKNESS (Sprague-Dawley rats; 400 mg/day - 7 d): 10.3%
PERCENT DECREASE IN THYMUS WEIGHT (Sprague-Dawley rats; 400 mg/day - 7 d): −2.5%
effect on thymus weight (in words) (Sprague-Dawley rats; regimens of Table 2): minimal effects on skin atrophy and thymus weight
skin atrophy (in words) (Sprague-Dawley rats; regimens of Table 2): minimal effects on skin atrophy and thymus weight
skin atrophy (in words) (Sprague-Dawley rats; regimens of Table 2, listed as Loteprednol etabonate): did not cause a statistically significant decrease in skin thickness
effect on thymus weight (in words) (Sprague-Dawley rats; [8]): did not effect thymus weight significantly
skin atrophy (in words) (Sprague-Dawley rats; [8]): less skin atrophy
